Test results published in patent US4416885A, “Use of isopropylaminopyrimidine in the chemotherapy of muscular dystrophy, myopathy and myotonia” (priority 1982, dated 1983).

Tested on: pectoral muscle fibre of dystrophic chickens
Assay: Histopathology of pectoral muscle
Assay type: in vivo, chicken
Conditions: for % Fibre Splitting / % Phagocytosis / Hypertrophy Factor / Mean Endomysial Area / Nuclei/Fibre / Peripheral Nuclei (% of Total) / Range (endomysial area) / Variability Coefficient: 30 days
Text: Muscle fibre area increase greatly in the dystrophic chicken as does the range of fibre area sizes. Nuclei become displaced peripherally and both features can be measured quantitatively and compared with normal controls.
The main difference between 4-week (FIG. 1A) and 7-week old (FIG. 2A) normal muscle from pectoral biopsies, at the light microscopic level, is with regard to myofibre growth. There is an increase in fibre area and a redistribution of the position and number of muscle nuclei. The latter change from a random distribution in the fibre in the 4-week bird to a central location in the 7-week bird of about 80% of the nuclei. The fibres are closely packed, with very little connective tissue present and every fibre is clearly polygonal in shape.
In contrast, dystrophic pectoral muscle has very few fibres which appear normal at 4 weeks of age. They are nearly all rounded in shape (as opposed to polygonal) and many are hypertrophic. Longitudinal fibre splitting occurs and the muscle nuclei lie preferentially against the sarcolemma (FIG. 1B). There is a large increase in perimysial connective tissue. By 7 weeks, massive hypertrophy occurs (FIG. 2B). Fibre splitting leads to hyperplasia. […] Pyknotic nuclei appear, and the muscle nuclei are randomly scattered throughout the fibre. Connective tissue often appears very dense. Some fibres are starting to atrophy and fatty tissue replacement can sometimes be seen at this stage.

**Q.** `CC(C)Nc1ncccn1.O=P(O)(O)O` [IAPP, 2-isopropylaminopyrimidine orthophosphate] was tested. Which “% Fibre Splitting” value (150 mg) did it give?
**A.** Its value is 3.0%.

**Q.** And the “% Phagocytosis” value (150 mg)?
**A.** The value was 0.0%.

**Q.** What about the “Hypertrophy Factor” value (150 mg) of the same molecule?
**A.** Its value is 125.

**Q.** And the “Mean Endomysial Area” value (150 mg)?
**A.** The value was 1025 μm^2.

**Q.** What about the Nuclei/Fibre (150 mg) of the same molecule?
**A.** Its Nuclei/Fibre is 2.5.

**Q.** And the “Peripheral Nuclei (% of Total)” value (150 mg)?
**A.** Its value is 46.1 % of Total.

**Q.** What about the “Range (endomysial area)” value (150 mg) of the same molecule?
**A.** The value was 82-2001 μm^2.

**Q.** What about the “Variability Coefficient” value (150 mg) of the same molecule?
**A.** The value was 416.

**Q.** And the Fibres still polygonal (150 mg/Kg daily, 7 week old biopsy)?
**A.** The Fibres still polygonal was 50%.

**Q.** And the “% Fibre Splitting” value (200 mg)?
**A.** Its value is 8.4%.

**Q.** And the “% Phagocytosis” value (200 mg)?
**A.** Its value is 1.6%.

**Q.** And the “Hypertrophy Factor” value (200 mg)?
**A.** Its value is 460.

**Q.** What about the “Mean Endomysial Area” value (200 mg) of the same molecule?
**A.** Its value is 763 μm^2.

**Q.** And the Nuclei/Fibre (200 mg)?
**A.** The Nuclei/Fibre was 2.5.

**Q.** What about the “Peripheral Nuclei (% of Total)” value (200 mg) of the same molecule?
**A.** Its value is 59.1 % of Total.

**Q.** What about the “Range (endomysial area)” value (200 mg) of the same molecule?
**A.** The value was 54-2554 μm^2.

**Q.** And the “Variability Coefficient” value (200 mg)?
**A.** Its value is 709.

**Q.** What about the “% Fibre Splitting” value (300 mg (3× wk.)) of the same molecule?
**A.** Its value is 3.0%.

**Q.** And the “% Phagocytosis” value (300 mg (3× wk.))?
**A.** The value was 0.0%.

**Q.** And the “Hypertrophy Factor” value (300 mg (3× wk.))?
**A.** Its value is 10.

**Q.** And the “Mean Endomysial Area” value (300 mg (3× wk.))?
**A.** The value was 449 μm^2.

**Q.** What about the Nuclei/Fibre (300 mg (3× wk.)) of the same molecule?
**A.** The Nuclei/Fibre was 1.3.

**Q.** What about the “Peripheral Nuclei (% of Total)” value (300 mg (3× wk.)) of the same molecule?
**A.** The value was 40.9 % of Total.

**Q.** And the “Range (endomysial area)” value (300 mg (3× wk.))?
**A.** Its value is 51-1060 μm^2.

**Q.** And the “Variability Coefficient” value (300 mg (3× wk.))?
**A.** Its value is 518.

**Q.** And the “% Fibre Splitting” value (300 mg)?
**A.** The value was 10.3%.

**Q.** And the “% Phagocytosis” value (300 mg)?
**A.** The value was 0.3%.

**Q.** What about the “Hypertrophy Factor” value (300 mg) of the same molecule?
**A.** Its value is 100.

**Q.** What about the “Mean Endomysial Area” value (300 mg) of the same molecule?
**A.** The value was 552 μm^2.

**Q.** What about the Nuclei/Fibre (300 mg) of the same molecule?
**A.** Its Nuclei/Fibre is 1.7.

**Q.** What about the “Peripheral Nuclei (% of Total)” value (300 mg) of the same molecule?
**A.** Its value is 42.1 % of Total.

**Q.** And the “Range (endomysial area)” value (300 mg)?
**A.** Its value is 24-1226 μm^2.

**Q.** What about the “Variability Coefficient” value (300 mg) of the same molecule?
**A.** The value was 580.

**Q.** And the “Muscle appearance vs normal muscle” value (300 mg/Kg 3 times/week at 30 days)?
**A.** The value was “indistinguishable from normal muscle”.

**Q.** And the “Dosage at which histological parameters most closely approximate normal values” (i.p.)?
**A.** The value was 300 mg/Kg.

**Q.** And the Muscle morphology (oral 1 g/Kg daily for 35 days)?
**A.** Its Muscle morphology is “marked improvements in the muscle morphology”.
